Laboratory results taken from ChEMBL document CHEMBL1201862, “PubChem BioAssay data set” (2004).
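Test compounds were applied to cells in 96-well plates for 48 hours at 5 doses. GI50 marks 50% less growth.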 Active and inactive are the calls of the source. No stated cut-off is given here; in the data, active = GI50 up to about 1.1 µM and inactive = higher.

Key:
Experiment in all cases: NCI anticancer screen, dose series, 48 h
MCF7 = system: MCF7
SF-539 = system: SF-539
SK-MEL-28 = system: SK-MEL-28
OVCAR-3 = system: OVCAR-3
A498 = system: A498
NCI/ADR-RES = system: NCI/ADR-RES
MDA-MB-435 = system: MDA-MB-435
MOLT-4 = system: MOLT-4
HT-29 = system: HT-29
CAKI-1 = system: CAKI-1
MDA-N = system: MDA-N
HCT-15 = system: HCT-15
UACC-62 = system: UACC-62
LOX IMVI = system: LOX IMVI
ACHN = system: ACHN
RXF 393 = system: RXF 393
OVCAR-4 = system: OVCAR-4
SNB-19 = system: SNB-19
OVCAR-5 = system: OVCAR-5
TK-10 = system: TK-10
UACC-257 = system: UACC-257
HCT-116 = system: HCT-116
HOP-92 = system: HOP-92
U-251 = system: U-251
SF-295 = system: SF-295
SK-OV-3 = system: SK-OV-3
A549 = system: A549
NCI-H522 = system: NCI-H522
HL-60 = system: HL-60
786-0 = system: 786-0
SN12C = system: SN12C
DU-145 = system: DU-145
COLO 205 = system: COLO 205
NCI-H460 = system: NCI-H460
PC-3 = system: PC-3
IGROV-1 = system: IGROV-1
HOP-62 = system: HOP-62
CCRF-CEM = system: CCRF-CEM
SK-MEL-2 = system: SK-MEL-2
HCC 2998 = system: HCC 2998
T47D = system: T47D
NCI-H226 = system: NCI-H226
SF-268 = system: SF-268
NCI-H23 = system: NCI-H23
BT-549 = system: BT-549
OVCAR-8 = system: OVCAR-8
UO-31 = system: UO-31
SNB-75 = system: SNB-75
Hs-578T = system: Hs-578T
SK-MEL-5 = system: SK-MEL-5
M14 = system: M14
SR = system: SR
K562 = system: K562
KM12 = system: KM12
SW-620 = system: SW-620
MDA-MB-231 = system: MDA-MB-231
EKVX = system: EKVX
Malme-3M = system: Malme-3M

CCCC(=O)N(C(=O)CCC)C1=C(Cl)C(=O)c2ccccc2C1=O
GI50 (MCF7): 1.84 µM (inactive)
GI50 (SF-539): 3.62 µM (inactive)
GI50 (SK-MEL-28): 3.72 µM (inactive)
GI50 (OVCAR-3): 3.21 µM (inactive)
GI50 (A498): 18.3 µM (inactive)
GI50 (NCI/ADR-RES): 3.86 µM (inactive)
GI50 (MDA-MB-435): 4.63 µM (inactive)
GI50 (MOLT-4): 3.25 µM (inactive)
GI50 (HT-29): 8.51 µM (inactive)
GI50 (CAKI-1): 2.24 µM (inactive)
GI50 (MDA-N): 7.45 µM (inactive)
GI50 (HCT-15): 2.1 µM
GI50 (UACC-62): 2.49 µM (inactive)
GI50 (LOX IMVI): 3.66 µM (inactive)
GI50 (ACHN): 1.28 µM (inactive)
GI50 (RXF 393): 2.17 µM (inactive)
GI50 (OVCAR-4): 5.52 µM (inactive)
GI50 (SNB-19): 6.73 µM (inactive)
GI50 (OVCAR-5): 7.67 µM (inactive)
GI50 (TK-10): 4.1 µM (inactive)
GI50 (UACC-257): 3.42 µM (inactive)
GI50 (HCT-116): 2.72 µM (inactive)
GI50 (HOP-92): 4.01 µM (inactive)
GI50 (U-251): 4.08 µM (inactive)
GI50 (SF-295): 15.8 µM (inactive)
GI50 (SK-OV-3): 15.5 µM (inactive)
GI50 (A549): 6.73 µM (inactive)
GI50 (NCI-H522): 0.611 µM (active)
GI50 (HL-60): 0.574 µM (active)
GI50 (786-0): 9.98 µM (inactive)
GI50 (SN12C): 13.3 µM (inactive)
GI50 (DU-145): 14 µM (inactive)
GI50 (COLO 205): 2.91 µM (inactive)
GI50 (NCI-H460): 5.22 µM (inactive)
GI50 (PC-3): 4.06 µM (inactive)
GI50 (IGROV-1): 5.66 µM (inactive)
GI50 (HOP-62): 11.9 µM (inactive)
GI50 (CCRF-CEM): 2.09 µM (inactive)
GI50 (SK-MEL-2): 4.42 µM (inactive)
GI50 (HCC 2998): 4.04 µM (inactive)
GI50 (T47D): 2.33 µM (inactive)
GI50 (NCI-H226): 8.38 µM (inactive)
GI50 (SF-268): 4.32 µM (inactive)
GI50 (NCI-H23): 2.65 µM (inactive)
GI50 (BT-549): 3.41 µM (inactive)
GI50 (OVCAR-8): 6.25 µM (inactive)
GI50 (UO-31): 1.62 µM (inactive)
GI50 (SNB-75): 3.18 µM (inactive)
GI50 (Hs-578T): 8.04 µM (inactive)
GI50 (SK-MEL-5): 3.1 µM (inactive)
GI50 (M14): 6.62 µM (inactive)
GI50 (SR): 3.02 µM (inactive)
GI50 (K562): 2.18 µM (inactive)
GI50 (KM12): 3.49 µM (inactive)
GI50 (SW-620): 2.87 µM (inactive)
GI50 (MDA-MB-231): 18.2 µM (inactive)
GI50 (EKVX): 5.36 µM (inactive)

COc1ccc(N(C(=O)Nc2ccc(Cl)c(Cl)c2)c2ccccc2)cc1
GI50 (Malme-3M): > 10 µM (inactive)
GI50 (MCF7): > 10 µM (inactive)
GI50 (SF-539): > 10 µM (inactive)
GI50 (SK-MEL-28): > 10 µM (inactive)
GI50 (OVCAR-3): > 10 µM (inactive)
GI50 (A498): > 10 µM (inactive)
GI50 (NCI/ADR-RES): > 10 µM (inactive)
GI50 (MDA-MB-435): > 10 µM (inactive)
GI50 (MOLT-4): > 10 µM (inactive)
GI50 (HT-29): > 10 µM (inactive)
GI50 (CAKI-1): > 10 µM (inactive)
GI50 (MDA-N): > 10 µM (inactive)
GI50 (HCT-15): > 10 µM
GI50 (UACC-62): > 10 µM (inactive)
GI50 (LOX IMVI): > 10 µM (inactive)
GI50 (ACHN): > 10 µM (inactive)
GI50 (RXF 393): > 10 µM (inactive)
GI50 (OVCAR-4): > 10 µM (inactive)
GI50 (SNB-19): > 10 µM (inactive)
GI50 (OVCAR-5): > 10 µM (inactive)
GI50 (TK-10): > 10 µM (inactive)
GI50 (UACC-257): > 10 µM (inactive)
GI50 (HCT-116): > 10 µM (inactive)
GI50 (HOP-92): > 10 µM (inactive)
GI50 (U-251): > 10 µM (inactive)
GI50 (SF-295): > 10 µM (inactive)
GI50 (SK-OV-3): > 10 µM (inactive)
GI50 (A549): > 10 µM (inactive)
GI50 (NCI-H522): > 10 µM (inactive)
GI50 (HL-60): > 10 µM (inactive)
GI50 (786-0): > 10 µM (inactive)
GI50 (SN12C): > 10 µM (inactive)
GI50 (DU-145): > 10 µM (inactive)
GI50 (COLO 205): > 10 µM (inactive)
GI50 (NCI-H460): > 10 µM (inactive)
GI50 (PC-3): > 10 µM (inactive)
GI50 (IGROV-1): > 10 µM (inactive)
GI50 (HOP-62): > 10 µM (inactive)
GI50 (CCRF-CEM): > 10 µM (inactive)
GI50 (HCC 2998): > 10 µM (inactive)
GI50 (T47D): > 10 µM (inactive)
GI50 (NCI-H226): > 10 µM (inactive)
GI50 (SF-268): > 10 µM (inactive)
GI50 (NCI-H23): > 10 µM (inactive)
GI50 (BT-549): > 10 µM (inactive)
GI50 (OVCAR-8): > 10 µM (inactive)
GI50 (UO-31): > 10 µM (inactive)
GI50 (Hs-578T): > 10 µM (inactive)
GI50 (SK-MEL-5): > 10 µM (inactive)
GI50 (M14): > 10 µM (inactive)
GI50 (SR): > 10 µM (inactive)
GI50 (K562): > 10 µM (inactive)
GI50 (KM12): > 10 µM (inactive)
GI50 (SW-620): > 10 µM (inactive)
GI50 (MDA-MB-231): > 10 µM (inactive)
GI50 (EKVX): > 10 µM (inactive)
